Reference: patent US20080096894A1, “Anti-Bacterial Compounds” (ASTON UNIVERSITY, priority 2005, published 2008)

Tests used:
[1] = test system: Streptococcus bovis NCTC 11436; assay: MIC, doubling dilution in 96-well microtitre plate; type: cell-based
Experimental: (§1) The compound was tested as follows. […] The wells were inoculated with organism ([…] of medium containing 10^6 cfu/mL) and the plates were incubated at 37° C. overnight. Where growth of organism occurred this was observed as a small button when viewed from underneath the plate. The MIC was determined as the lowest concentration inhibiting growth.

[2] = test system: Enterococcus faecalis NCTC 5957; assay: MIC, doubling dilution in 96-well microtitre plate; type: cell-based
Experimental: as §1

Bacillus cereus = assay: MIC, doubling dilution in 96-well microtitre plate; type: cell-based
Experimental: as §1

Micrococcus luteus = assay: MIC, doubling dilution in 96-well microtitre plate; type: cell-based
Experimental: as §1

Bacillus polymyxa = assay: MIC, doubling dilution in 96-well microtitre plate; type: cell-based
Experimental: as §1

Micrococcus roseus = assay: MIC, doubling dilution in 96-well microtitre plate; type: cell-based
Experimental: as §1

Moraxella catarrhalis = assay: MIC, doubling dilution in 96-well microtitre plate; type: cell-based
Experimental: as §1

[3] = test system: Staphylococcus aureus NCTC 6571; assay: MIC, doubling dilution in 96-well microtitre plate; type: cell-based
Experimental: as §1

[4] = test system: Staphylococcus aureus (MRSA) 96-7475; assay: MIC, doubling dilution in 96-well microtitre plate; type: cell-based
Experimental: as §1

Bacillus subtilis = assay: MIC, doubling dilution in 96-well microtitre plate; type: cell-based
Experimental: as §1

Bacillus megarerium = assay: MIC, doubling dilution in 96-well microtitre plate; type: cell-based
Experimental: as §1

Enterococcus faecium = assay: MIC, doubling dilution in 96-well microtitre plate; type: cell-based
Experimental: as §1

[5] = test system: Staphylococcus epidermidis NCTC 11047; assay: MIC, doubling dilution in 96-well microtitre plate; type: cell-based
Experimental: as §1

[6] = test system: Staphylococcus aureus W11 MRSA; assay: MIC, doubling dilution in 96-well microtitre plate; type: cell-based
Experimental: as §1

[7] = test system: Staphylococcus aureus NCTC 10788; assay: MIC, doubling dilution in 96-well microtitre plate; type: cell-based
Experimental: as §1

[8] = test system: human mononuclear leucocytes (MNL, white blood cells); conditions: rat liver microsomes added; Coleman et al 1999; cited from earlier work
MRSA = assay: MIC, agar dilution, multipoint inoculator; type: cell-based, methicillin-resistant Staphylococcus aureus; conditions: Staphylococcus aureus, MRSA, 18 h, panel of ten MRSA strains (clinical isolates); read-out: MRSA MIC range
In short: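 Agar dilution MIC on Mueller Hinton agar, multipoint inoculator delivering 10^4 colony forming units per spot. MRSA values are ranges across ten clinical MRSA strains; S. aureus NCTC 6571 as reference strain.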

[9] = test system: human mononuclear leucocytes (MNL, white blood cells); assay: direct leucocyte toxicity, tryptan blue exclusion, 18 hours; type: cell-based; conditions: human, 18 h, 1 mM
Experimental: The in vitro assay used human mononuclear leucocytes (MNL, white blood cells) which were incubated with the test compound for 18 hours and cell death determined by tryptan blue exclusion (tryptan blue is a dye, which stains dead cells, whilst living cells extrude it).
The toxicity of 4PYcq and the aldehyde cq and pyridine-4-carboxamidrazone precursors were assessed using the same in vitro assay with human mononuclear leucocytes as that described above. The toxicity of related compounds, 2-hydroxybenzylidene-pyridine-2-carboxamidrazone 4PYbw and benzylidenepyridine-2-carboxamidrazone 4PYaa were also examined.

E. faecium isolates = conditions: against 86% of E. faecium isolates; cited from earlier work
[10] = Enterococcus faecium ATCC 10541

| Compound | MIC [1] | MIC [2] | MIC (Bacillus cereus) | MIC (Micrococcus luteus) | MIC (Micrococcus roseus) | MIC (Moraxella catarrhalis) | MIC [3] | MIC [4] | MIC (Bacillus subtilis) | MIC (Enterococcus faecium; [10]) | MIC [5] | other results |
| --- | --- | --- | --- | --- | --- | --- | --- | --- | --- | --- | --- | --- |
| CC(C)(C)c1cc(C=NN=C(N)c2cc[n+]([O-])cc2)c(O)c(C(C)(C)C)c1 [Compound 4PYOcq] | 64 to 128 µg/mL | 64 to 128 µg/mL | 16 to 32 µg/mL | 8 to 16 µg/mL | 1 to 2 µg/mL | 32 to 64 µg/mL | 16 to 32 µg/mL | 64 to 128 µg/mL | 64 to 128 µg/mL | 32 to 64 µg/mL | 32 to 64 µg/mL | MIC (Bacillus polymyxa): 1 to 2 µg/mL; MIC (Bacillus megarerium): 32 to 64 µg/mL; MIC (Enterococcus faecium; Enterococcus faecium NCTC 7171): 32 to 64 µg/mL |
| CC(C)(C)c1cc(C=NN=C(N)c2cc[n+]([O-])cc2)cc(C(C)(C)C)c1 [Compound 4PYOff] | 32 to 64 µg/mL | 32 to 64 µg/mL | 32 to 64 µg/mL | 32 to 64 µg/mL |  | 16 to 32 µg/mL | 32 to 64 µg/mL | 32 to 64 µg/mL | 32 to 64 µg/mL | 32 to 64 µg/mL | 32 to 64 µg/mL | MIC [6]: 32 to 64 µg/mL; MIC [7]: 32 to 64 µg/mL |
| N/C(=N\N=C\c1cccc2ccccc12)c1ccccn1 [Compound 2PYal] |  |  |  |  |  |  |  |  |  |  |  | cytotoxicity in the presence of the metabolising system (in words) [8]: marked reduction in cytotoxicity; MIC (MRSA): > 256 µg/mL; % Leucocyte Death [9]: 17.1 ± 4.9% |
| NC(=NN=Cc1c2ccccc2cc2ccccc12)c1cc[n+]([O-])cc1 [Compound 4PYOam] |  | 64 to 128 µg/mL |  |  | 32 to 64 µg/mL |  |  |  | 64 to 128 µg/mL | 64 to 128 µg/mL |  |  |
| quinupristin/dalfopristin |  |  |  |  |  |  |  |  |  |  |  | MIC (E. faecium isolates): ≤ 2 µg/mL |
